Common to all, as to type: functional
Common to all, as to conditions: read-out: ED50 (the source's name)

Assay [1] relates to A549. Put plainly: Cytotoxicity against human A549 cells.
Assay [2] has as its system SK-OV-3. Kind of assay: Cytotoxicity against human SKOV3 cells.
Assay [3] has as its system SK-MEL-2. Put plainly: Cytotoxicity against human SK-MEL-2 cells.
Assay [4] relates to XF498. Kind of assay: Cytotoxicity against human XF498 cells.
For assay [5], the system named is HCT-15. Kind of assay: Cytotoxicity against human HCT15 cells.

≈ marks a conversion by molar mass, not a printed value.

Turning to `CC(/C=C/[C@@H](C)[C@H]1C[C@@H](O)[C@@H]2[C@]1(C)CC[C@@H]1[C@@]3(C)CC[C@H](O)[C@H](O)[C@@H]3[C@@H](O)C[C@]12O)CO` (stereo not given in full), the EC50 in assay [1], in assay [2], in assay [3], in assay [4] and in assay [5] was more than 30 µg/mL each time.
For `CO[C@H]1[C@H](O[C@H]2[C@H](O[C@@H](CC[C@@H](C)[C@H]3C[C@@H](O)[C@H]4[C@@H]5C[C@H](O)[C@H]6[C@@H](O)[C@@H](O)CC[C@]6(C)[C@H]5CC[C@@]43C)C(C)C)O[C@H](CO)[C@@H]2O)OC[C@@H](O)[C@@H]1O` [CERTONARDOSIDE H3], the EC50 came to 3.65 µg/mL (≈ 4.99 µM) in assay [1]; 2.8 µg/mL (≈ 3.83 µM) in assay [2]; 0.82 µg/mL (≈ 1.12 µM) in assay [3]; 0.52 µg/mL (≈ 0.711 µM) in assay [4]; 7.2 µg/mL (≈ 9.85 µM) in assay [5].
For `CC(C)[C@H](CC[C@@H](C)[C@H]1C[C@@H](O)[C@H]2[C@@H]3C[C@H](O)[C@H]4[C@@H](O)[C@@H](O)CC[C@]4(C)[C@H]3CC[C@@]21C)O[C@@H]1O[C@H](CO)[C@H](O)[C@H]1O` [CERTONARDOSIDE H4], in that order: more than 30 µg/mL, more than 30 µg/mL, 8.3 µg/mL (≈ 14.2 µM), more than 30 µg/mL and more than 30 µg/mL.
As for `C[C@H](CO)CCC[C@@H](C)[C@H]1C[C@@H](O)[C@@H]2[C@]1(C)CC[C@@H]1[C@@]3(C)CC[C@H](O)[C@H](O)[C@@H]3[C@@H](O)C[C@]12O` [CERTONARDOSTEROL A3], the EC50 in assay [1] came to 11.7 µg/mL (≈ 25 µM); in assay [2], 16.2 µg/mL (≈ 34.6 µM); in assay [3], 5.24 µg/mL (≈ 11.2 µM); in assay [4], 18.6 µg/mL (≈ 39.7 µM); in assay [5], 20.3 µg/mL (≈ 43.3 µM).
In the case of `CC(/C=C/[C@@H](C)[C@H]1C[C@@H](O)[C@@H]2[C@]1(C)CC[C@@H]1[C@@]3(C)CC[C@H](O)[C@H](O)[C@@H]3[C@@H](O)C[C@]12O)[C@@H](C)O` (stereo not given in full) [CERTONARDOSTEROL A4], the EC50 in assay [1] amounted to 17 µg/mL (≈ 36.4 µM); in assay [2], 16.4 µg/mL (≈ 35.1 µM); in assay [3], 5.7 µg/mL (≈ 12.2 µM); in assay [4], 28.4 µg/mL (≈ 60.9 µM); in assay [5] it was 19.3 µg/mL (≈ 41.4 µM).
As to `CC(/C=C/[C@@H](C)[C@H]1C[C@@H](O)[C@H]2[C@@H]3C[C@H](O)[C@H]4[C@@H](O)[C@@H](O)CC[C@]4(C)[C@H]3CC[C@@]21C)CO` (stereo not given in full) [CERTONARDOSTEROL B3], the EC50 is 12.5 µg/mL (≈ 28.6 µM) in assay [1]; 12.1 µg/mL (≈ 27.7 µM) in assay [2]; 7.13 µg/mL (≈ 16.3 µM) in assay [3]; 14.7 µg/mL (≈ 33.7 µM) in assay [4]; 10.4 µg/mL (≈ 23.8 µM) in assay [5].
In the case of `CC(C)[C@](O)(CO)CC[C@@H](C)[C@H]1C[C@@H](O)[C@H]2[C@@H]3C[C@H](O)[C@H]4[C@@H](O)[C@@H](O)CC[C@]4(C)[C@H]3CC[C@@]21C` [CERTONARDOSTEROL B4], the EC50 was more than 30 µg/mL in assay [1]; 36.6 µg/mL (≈ 75.8 µM) in assay [2]; 7.5 µg/mL (≈ 15.5 µM) in assay [3]; more than 30 µg/mL in assay [4]; more than 30 µg/mL in assay [5].
In the case of `C=C(CC[C@@H](C)[C@H]1CC(=O)[C@@H]2[C@]1(C)CC[C@@H]1[C@@]3(C)CC[C@H](O)[C@H](O)[C@@H]3[C@@H](O)C[C@]12O)[C@H](C)CO` [CERTONARDOSTEROL Q1], the EC50 stood at 12 µg/mL (≈ 25.1 µM) in assay [1]; 10.9 µg/mL (≈ 22.8 µM) in assay [2]; 5.57 µg/mL (≈ 11.6 µM) in assay [3]; 4.95 µg/mL (≈ 10.3 µM) in assay [4]; 11.6 µg/mL (≈ 24.2 µM) in assay [5].
In the case of `CC(C)[C@@H](O)CC[C@@H](C)[C@H]1CC(=O)[C@@H]2[C@]1(C)CC[C@@H]1[C@@]3(C)CC[C@H](O)[C@H](O)[C@@H]3[C@@H](O)C[C@]12O` [CERTONARDOSTEROL Q2], the EC50 turned out to be 6.94 µg/mL (≈ 14.9 µM) in assay [1]; 6.85 µg/mL (≈ 14.7 µM) in assay [2]; 4.2 µg/mL (≈ 9 µM) in assay [3]; 4.1 µg/mL (≈ 8.79 µM) in assay [4]; 5.82 µg/mL (≈ 12.5 µM) in assay [5].
The like results for `CC(C)[C@@H](O)CC[C@@H](C)[C@H]1CC(=O)[C@@H]2[C@]1(C)CC[C@@H]1[C@@]3(C)CC[C@H](O)C[C@@H]3[C@@H](O)C[C@]12O` [CERTONARDOSTEROL Q3] were, in that order, 5.43 µg/mL (≈ 12 µM), 12.3 µg/mL (≈ 27.3 µM), 7.3 µg/mL (≈ 16.2 µM), 12.6 µg/mL (≈ 28 µM) and 13.6 µg/mL (≈ 30.2 µM).
Take `C[C@H](CO)CCC[C@@H](C)[C@H]1CC(=O)C2=C3C[C@H](O)[C@H]4[C@@H](O)[C@@H](O)CC[C@]4(C)[C@H]3CC[C@@]21C` [CERTONARDOSTEROL Q4]: the EC50 was found to be 3.8 µg/mL (≈ 8.47 µM) in assay [1]; 4.1 µg/mL (≈ 9.14 µM) in assay [2]; 3.4 µg/mL (≈ 7.58 µM) in assay [3]; 2.9 µg/mL (≈ 6.46 µM) in assay [4]; 4.2 µg/mL (≈ 9.36 µM) in assay [5].
For `C=C(CC[C@@H](C)[C@H]1CC(=O)C2=C3C[C@H](O)[C@H]4[C@@H](O)[C@@H](O)CC[C@]4(C)[C@H]3CC[C@@]21C)[C@H](C)CO` [CERTONARDOSTEROL Q5], the EC50 in assay [1], in assay [2], in assay [3], in assay [4] and in assay [5] was more than 30 µg/mL in each case.
For `CC(C)[C@@H](O)CC[C@@H](C)[C@H]1CC(=O)C2=C3C[C@H](O)[C@H]4C[C@@H](O)CC[C@]4(C)[C@H]3CC[C@@]21C` [CERTONARDOSTEROL Q6], the EC50 amounted to 0.43 µg/mL (≈ 0.994 µM) in assay [1]; 0.22 µg/mL (≈ 0.509 µM) in assay [2]; 0.17 µg/mL (≈ 0.393 µM) in assay [3]; 0.12 µg/mL (≈ 0.277 µM) in assay [4]; 0.48 µg/mL (≈ 1.11 µM) in assay [5].
As to `CC(C)[C@@H](O)CC[C@@H](C)[C@H]1CC(=O)C2=C3C[C@H](O)[C@H]4[C@@H](O)[C@@H](O)CC[C@]4(C)[C@H]3CC[C@@]21C` [CERTONARDOSTEROL Q7], the EC50 is 4.58 µg/mL (≈ 10.2 µM) in assay [1]; 6.65 µg/mL (≈ 14.8 µM) in assay [2]; 4.66 µg/mL (≈ 10.4 µM) in assay [3]; 3.8 µg/mL (≈ 8.47 µM) in assay [4]; 7.1 µg/mL (≈ 15.8 µM) in assay [5].
For `COc1cccc2c1C(=O)c1c(O)c3c(c(O)c1C2=O)C[C@@](O)(C(=O)CO)C[C@@H]3O[C@H]1C[C@H](N)[C@H](O)[C@H](C)O1` [DOXORUBICIN], in that order: 0.04 µg/mL (≈ 0.0736 µM), 0.12 µg/mL (≈ 0.221 µM), 0.05 µg/mL (≈ 0.092 µM), 0.12 µg/mL (≈ 0.221 µM) and 0.18 µg/mL (≈ 0.331 µM).

(Values after ChEMBL document CHEMBL1148916, “Additional cytotoxic sterols and saponins from the starfish certonardoa semiregularis” (2004).)
